Drawing on patent publication US10183040B2, “Method for regulation of lipid metabolism” (PROFEAT BIOTECHNOLOGY CO., LTD., priority 2014, dated 2019), this text covers triacylglycerol for two molecules.

A short description of the assay: Serum triacylglycerol, cholesterol, HDL and LDL assays of diabetes mice, Table 4 groups (FIG. 4A-4D). The format is in vivo, db/db mice (C57BLKS/J-leprdb/leprdb). Conditions: 4 mg/kg/day, versus phosphate solution control. On the procedure:
FIG. 4A is a bar chart of the triacylglycerol assay of diabetes mice in accordance with the present invention, wherein the mice of control group are administered with phosphate buffer; the mice of treatment group are administered with 4 mg/kg/day composition A1; the mice of B01 group are administered with commercial 4 mg/kg/day ferrous glycine, and the mice of C01 group are administered with 4 mg/kg/day ferrous sulfate.
FIG. 4B is a bar chart of the cholesterol assay of diabetes mice in accordance with the present invention, wherein the mice of control group are administered with phosphate buffer; the mice of treatment group are administered with 4 mg/kg/day composition A1; the mice of B01 group are administered with commercial 4 mg/kg/day ferrous glycine, and the mice of C01 group are administered with 4 mg/kg/day ferrous sulfate. […]
The mice were daily and orally administered with the composition A1 at dosage of […] for 12 weeks. The body weights of the mice were measured every 3 days, and the serum biochemical values of the mice were measured every 4 weeks after orally administering with the composition A1. Triacylglycerol and cholesterol of the serum biochemical values were determined using a Biochem-Immuno Fully Autoanalyzer (Brea, Calif., USA) or a Chemistry Analyzer (Hitachi, Ltd., Japan). […]

Turning to `NCC(=O)[O-].NCC(=O)[O-].[Fe+2]` [commercial ferrous glycine, ferrous glycine], the triacylglycerol entry is listed as “effectively reduced”.

As to “ferrous sulfate [commercial ferrous sulfate]”, the triacylglycerol result is “effectively reduced”.
